Six compounds from patent EP2404925A1, “New all trans platinum (IV) complexes, their preparation and their use as antitumor agents” (Universidad Autónoma de Madrid, priority 2010, dated 2012) can be followed below.

For one data set, the system named is CCRF-CEM. Briefly: In vitro antiproliferative assay (14C-thymidine uptake), CEM cells. The class given is cell-based, human. As to conditions: 72 h incubation, then 14C-thymidine uptake recorded 24 h later. On the procedure:
(§1) • CCRF-CEM is a human T-cell leukemia cell line (DSMZ ref ACC 240), established in 1964 from peripheral blood of young child bearing a terminal-stage ALL (Foley et al., Cancer 18: 522-529 (1965)). • NCI-H460 is a human epidermoïd lung tumour cell line, obtained from the NCI (NCI-Frederick. Tumor Bank). • MX1 is a human mammary carcinoma tumour, harbouring BRCA1 mutation, obtained from NCI (NCI-Frederick. Tumor Bank).
(§2) Tumour cells were grown in appropriate culture medium, either RPMI-1640 or DMEM, complemented with 10% calf-fetal serum and antibiotics.
(§3) Cell proliferation was evaluated by ^14C-thymidine uptake in DNA. Exponentially growing cells - from 5.10^3 to 10^4 per well in 180 µL culture medium - were introduced in a 96-wells microtitration Cytostar-T apparatus (GE Healthcare Bio-Sciences, Uppsala, Sweden). After 4 hours pre-incubation under CO2 atmosphere at 37°C, compounds were added in 10 µL volume. After incubation for an additional 72 hours period, 0.1 µCi ^14C-thymidine was added in each well, C^14 -thymidine uptake was recorded 24 hours later on a scintillation counter (Perkin-Elmer Life Sciences, Boston, MA, USA). IC50, defined as the dose which inhibits 50% of cell proliferation, were thus determined.

The next data set concerns NCI-H460. Briefly: In vitro antiproliferative assay (14C-thymidine uptake), H460 cells. As to conditions: 72 h incubation, then 14C-thymidine uptake recorded 24 h later. The data set is classed as cell-based, human. As for the experimental part:
as §1, §2, §3

For another data set, the system named is MX1 tumor. Kind of data set: In vivo antitumor evaluation in MX1 tumor model. As to conditions: for SRI activity rating: day 10 to day 15 post tumor implantation. More on the design: species or system SCID mice.
Source text: as §1
(§4) 7 to 8 weeks-old female SCID mice, obtained from Charles River (L'Arbresle, Lyon , France) were acclimated for at least 1 week previous experiment.
Animals, placed under normal light cycle, had then ad libitum access to food and water. MX1 cells, 10^7 cells per mouse initially grown in RPMI medium supplemented with 10% foetal-calf serum and antibiotics, were subcutaneously implanted in mice. When […] tumour volume was reached, fragments (2-3 mm diameter) were cut, placed in phosphate buffer (PBS), bilaterally implanted and further passaged in mice until tumour growth rate is stable, before starting the experiment. Tumors were measured with a caliper twice weekly until the tumor reached 2000 mm^3 or until the animal died (which ever come first). Tumor volumes were estimated from 2 dimensional measurements: Volume (in mm^3) = (a x b^2)/2, where a and b are the tumor length and width (mm) respectively. The variation from the baseline of the tumoral volume is calculated in the treated and control group. These values are used to calculate the median in the treated group (ΔT) and in the control group (ΔC). ΔT/ΔC, expressed as a percentage, is the ratio of median at a chosen day (the last day before it becomes necessary to sacrifice control mice owing to tumor size). ΔT/ΔC values can be translated into an activity rating, according to the Southern Research Institute (SRI) criteria:
(§5) When ΔT/ΔC values are negative, the percentage of regression is evaluated. A Partial regression (PR) is defined as a decrease in tumor volume greater than or equal to 50% of the tumor volume at start of treatment. A Complete regression (CR) is defined as a decrease in tumor volume below the limit of palpation (T=10mm^3). At the end of the study, the number of tumor free survivor (TFS) which correspond to mice without any detectable tumor is determined. Both drug-related deaths and maximum percent relative mean net body weight loss are also determined. A body weight loss (mean of group) of greater than 15% for more than 3 consecutive days or 20% weight loss for one day or 10% drug deaths are considered to indicate an excessively toxic dosage.

Data set [1] in a line: Toxicity (body weight loss, drug deaths) in the MX1 tumor model study. The data set is classed as in vivo, SCID mice. On the procedure: as §4, §5
Where [2] appears, read: i.v. daily during 5 days at 5 mg/kg.
The mark [3] stands for this setting: i.v. daily during 5 days at 5 mg/kg (25 mg/kg total dose).
Setting [4] is: i.v. daily during 5 days at 10 mg/kg.
The mark [5] stands for this setting: i.v. daily during 5 days at 10 mg/kg (50 mg/kg total dose).

For orientation: IC50 means the midpoint of a concentration-inhibition curve.

For the compound `O=C1[O][Pt]2([NH][C@@H]3CCCC[C@H]3[NH]2)[O]C1=O` [oxaliplatin, reference compound], the half-inhibitory concentration (IC50) in the data set with CCRF-CEM is 4000 nM; with NCI-H460, 2400 nM.
Taken in the same sequence, the figures for “Trans-trans-trans-{PtCl2(OH)2(isopropylamine)[(rac)-(endo)-norbornylamine]} [EXAMPLE 2]” were 25 nM and 255 nM.
For `N.N.[Cl][Pt][Cl]` [cisplatin, reference compound] the same measures were 400 to 800 nM and 2600 to 4000 nM.
For `CC(=O)[O][Pt]([NH2])([Cl])([Cl])([NH]C1CCCCC1)[O]C(C)=O` [satraplatin, reference compound] the same measures were 400 nM and 190 nM.
For the compound “Trans-trans-trans-{PtCl2(OH)2(isopropylamine)[(rac)-(exo)-norbornylamine]} [EXAMPLE 1]”, the IC50 in the data set on CCRF-CEM was determined as 53 nM; with NCI-H460 it was 532 nM. Moreover, the “CR (complete regression)” value in the data set on MX1 tumor (setting [2]) and with MX1 tumor (setting [4]) was 100% throughout. Besides, the ΔT/ΔC with MX1 tumor (setting [3]) and with MX1 tumor (setting [5]) was below 0% in each case. Besides, the SRI activity rating entry in the data set on MX1 tumor (setting [3]) and with MX1 tumor (setting [5]) was “highly active” each time. For the same compound, the “TFS (tumor free survivor) at the end of the study” value in the data set on MX1 tumor (setting [4]) came out at 2. Also, the toxicity for mice result in data set [1] (20 mg/kg) is reported as “toxic”. The deaths in data set [1] (20 mg/kg, deaths on days 17, 19, 20, 21 and 24 (2 mice)) is 6/6. In addition, the values for the body weight loss in data set [1] (setting [2]) and in data set [1] (setting [4]) were 4% and 12%, respectively. Moreover, the drug death result in data set [1] (setting [2]) and in data set [1] (setting [4]) was “no drug death” each time. This compound displayed a maximal tolerated dose in data set [1] (i.v., daily for 5 days schedule) of 10 mg/kg.
With “Trans-trans-trans-{PtCl2(OH)2(dimethylamine)[(exo)-2- norbornylamine]} [EXAMPLE 3]”, the figures for the half-maximal inhibitory concentration (IC50) in the data set on CCRF-CEM and with NCI-H460 were 31 nM and 315 nM, respectively.
